The target in one series is T1, human Topo II (Homo sapiens, UniProt P11388).
T1 construct: purchased TopoGEN, Inc., Columbus
The series can be described thus: Topoisomerase II inhibitory activity (TopoGEN drug screening kit). The class given is biochemical. Particulars: three independent experiments. How it is done:
The activity of topoisomerase II was determined according to the reported procedure described by Patra et al.[42]. […]
4.2.3. Measurement of topoisomerase II activity
Compounds (8a, 8b, 9a, 9c, 9d, 12a, and 12b) were further evaluated to assess their Topo II inhibitory activities. In this test, Topo II drug screening kit (TopoGEN, Inc., Columbus) was utilized to determine the Topo II activity. […] A typical enzyme […]
reaction contained a mixture of human Topo II (2 µL), substrate super coiled pHot1 DNA (0.25 µg), 50 µg/mL test compound (2 µL), and assay buffer (4 µL). The reaction started upon incubation of the mixture in 37 °C for 30 min. The reaction was terminated by addition of 10% sodium dodecylsulphate (2 µL) and proteinase K (50 µg/mL) at 37 °C for 15 min. followed by incubation for 15 min at 37 °C.
Then, the DNA was run on 1% agarose gel in BioRad gel electrophoresis system for 1–2 h followed by staining with GelRedTM stain for 2 h and destained for 15 min with TAE buffer. The gel was imaged Via BioRad’s Gel DocTMEZ system. Both supercoiled and linear strands DNA were incorporated in the gel as markers for DNA-Topo II intercalators. The results of IC50 values were calculated using the GraphPad Prism version 5.0. Each reaction was performed in duplicate, and at least three independent determinations of each IC50 were made.

Another series has as its system Calf thymus DNA. The series can be described thus: DNA intercalation assay (DNA/methyl green colorimetric assay). The class given is binding. Particulars: three independent experiments. How it is done:
(§1) The data represented the mean of three independent experiments in triplicate and were expressed as means ± SD. […]
4.2.2. DNA intercalation assay (DNA/methyl green colorimetric assay)
Affinity of some compounds for DNA-binding was examined in vitro using DNA/methyl green assay using doxorubicin as a positive control. In this test, a mixture of methyl green (20 mg) and Calf thymus DNA (10 mg) (Sigma– Aldrich) were suspended in 0.05 M TrisHCl buffer (100 mL, pH 7.5) containing 7.5 mM MgSO4. This mixture was stirred continuously for 24 h at 37 °C. Then, ethanolic solution of the test compounds was pitted into the wells of a 96-well microtiter tray at a concentration of 10, 100 and 1000 µM. The excess solvent was removed from each well under vacuum, with subsequent addition of 200 µL of the DNA/methyl green solution. The test samples were incubated for 24 h in dark at ambient temperature. After that, absorbance of each sample was determined at 642.5–645 nm. In this test, the methyl green dye reversibly binds to DNA to form persistent colored complex of DNA/methyl green. This color still stables at neutral pH. When the DNA intercalators were added, the methyl green was displaced from DNA with addition of H2O molecule to the dye resulting in formation of the colorless carbinol leading to a decrease in spectrophotometric absorbance. ΔA value (the difference between DNA/methyl green complex and free cabinol) provides the simplest means for detecting the DNA-binding affinity and relative binding strength. IC50′s were determined by linear regression of data plotted on a semi -log scale and the data were compared with doxorubicin as standard DNA intercalator . […]

Series [1] deals with HCT-116 cells (colorectal carcinoma). The series can be described thus: MTT anti-proliferative assay, HCT-116. Type of series: cell-based, human. As to the method:
Anti-proliferative activities of the target compounds were assessed via the standard MTT method[38–40] against three cancer cell lines, namely, hepatocellular carcinoma (HepG-2), colorectal carcinoma (HCT-116), and human breast adenocarcinoma (MCF-7). Doxorubicin was used in this test as a positive control.
Anti-proliferative activity of the synthesised compounds was estimated using the MTT assay protocol[8]^,[38–40] as shown in Supplementary data.
4.2.1. In vitro anti-proliferative activity against MCF-7, HepG-2 and HCT-116 The cells were cultured in RPMI-1640 medium supplemented with 10% fetal bovine serum (FBS), penicillin (100 unit /mL) and streptomycin sulphate (100µg/mL) at 37 °C in a 5% CO2 incubator.
Then, cells were dropped in 96-well plates at a density of 3-8 × 10^3 cells/well and incubated for two days in a 5% CO2 incubator at 37 °C. Then, the cells were treated with the synthesized compounds and the cell cultures were continued incubated for 24 h. However, Different concentrations of the compound under test (0.0, 5.0, 12.5, 25.0 and 50 mg/ml) were added to the cell monolayer. Then, (3-[4,5-dimethylthiazol-2-yl]- 2,5-diphenyltetrazolium bromide) MTT solution (20 µl, 5mg/mL) was added to each well and incubated for additional 4 h. The formed purple crystals of MTT-formazan were dissolved in 100 µl DMSO each well; the absorbance of each well was measured at 570 nm using a plate reader (EXL 800, USA). All of the compounds were tested three times. The relative cell viability in percentage was calculated. The results for IC50 values of the active compounds are […]
as §1
of the cells could survive. […]

Series [2] can be described thus: Hematological and biochemical blood assays in SEC-bearing mice. Type of series: in vivo, Swiss albino mice. The conditions noted are these: 5 mg/kg BW, Mean ± SEM (n = 7), 5 mg/kg. As to the method:
At the end of the experiment, animals from different groups were sacrificed, and blood samples were collected for hematological parameters, including Hb, RBC’s, and WBC’s levels, and serum for determination of liver enzymes ALT, AST levels, and proteins.
The experimental animals were randomly divided into four groups. Group 1 served as the normal saline control (5 ml/kg B.Wt., I.P.). Group 2 served as the SEC control (1 × 10^6 cells/mouse). Group 3 served as the compound-treated group (5 mg/kg B.Wt., I.P.). […] Bodyweight and survival were recorded daily until the 24th day in both treated and control groups. At the end of the experiment, the blood of each group was collected under light anaesthesia to the estimate of hematological and biochemical assays. The anaesthetised animals were then sacrificed for evaluation of the antitumor activity and histopathological examination.
At the end of the experiment, animals from different groups were sacrificed, and blood samples were collected for hematological parameters including, Hb, RBC’s, and WBC’s levels, and serum for determination of liver enzymes ALT, AST levels, and proteins. Complete blood count (CBC) was investigated using the Abbott CELL-DYN®1800 automated haematology analyser (USA) using ready-made kits (Abbott Laboratories, Abbott Park, IL, USA). Activities of aspartate aminotransferase (AST) and alanine aminotransferase (ALT) were evaluated using commercial kits (ELITech clinical systems, France). Serum albumin level was determined by kit purchased from STANBIO Company (USA). Protein content was determined by colorimetric method using ready-made kits produced by Instrumentation Laboratory SpA, Inova diagnostics, Milano, Italy.

Where “and” joins values, the source holds several entries; their conditions need not be identical. Identical values can stand only once.

T1 sequence (P11388 whole entry): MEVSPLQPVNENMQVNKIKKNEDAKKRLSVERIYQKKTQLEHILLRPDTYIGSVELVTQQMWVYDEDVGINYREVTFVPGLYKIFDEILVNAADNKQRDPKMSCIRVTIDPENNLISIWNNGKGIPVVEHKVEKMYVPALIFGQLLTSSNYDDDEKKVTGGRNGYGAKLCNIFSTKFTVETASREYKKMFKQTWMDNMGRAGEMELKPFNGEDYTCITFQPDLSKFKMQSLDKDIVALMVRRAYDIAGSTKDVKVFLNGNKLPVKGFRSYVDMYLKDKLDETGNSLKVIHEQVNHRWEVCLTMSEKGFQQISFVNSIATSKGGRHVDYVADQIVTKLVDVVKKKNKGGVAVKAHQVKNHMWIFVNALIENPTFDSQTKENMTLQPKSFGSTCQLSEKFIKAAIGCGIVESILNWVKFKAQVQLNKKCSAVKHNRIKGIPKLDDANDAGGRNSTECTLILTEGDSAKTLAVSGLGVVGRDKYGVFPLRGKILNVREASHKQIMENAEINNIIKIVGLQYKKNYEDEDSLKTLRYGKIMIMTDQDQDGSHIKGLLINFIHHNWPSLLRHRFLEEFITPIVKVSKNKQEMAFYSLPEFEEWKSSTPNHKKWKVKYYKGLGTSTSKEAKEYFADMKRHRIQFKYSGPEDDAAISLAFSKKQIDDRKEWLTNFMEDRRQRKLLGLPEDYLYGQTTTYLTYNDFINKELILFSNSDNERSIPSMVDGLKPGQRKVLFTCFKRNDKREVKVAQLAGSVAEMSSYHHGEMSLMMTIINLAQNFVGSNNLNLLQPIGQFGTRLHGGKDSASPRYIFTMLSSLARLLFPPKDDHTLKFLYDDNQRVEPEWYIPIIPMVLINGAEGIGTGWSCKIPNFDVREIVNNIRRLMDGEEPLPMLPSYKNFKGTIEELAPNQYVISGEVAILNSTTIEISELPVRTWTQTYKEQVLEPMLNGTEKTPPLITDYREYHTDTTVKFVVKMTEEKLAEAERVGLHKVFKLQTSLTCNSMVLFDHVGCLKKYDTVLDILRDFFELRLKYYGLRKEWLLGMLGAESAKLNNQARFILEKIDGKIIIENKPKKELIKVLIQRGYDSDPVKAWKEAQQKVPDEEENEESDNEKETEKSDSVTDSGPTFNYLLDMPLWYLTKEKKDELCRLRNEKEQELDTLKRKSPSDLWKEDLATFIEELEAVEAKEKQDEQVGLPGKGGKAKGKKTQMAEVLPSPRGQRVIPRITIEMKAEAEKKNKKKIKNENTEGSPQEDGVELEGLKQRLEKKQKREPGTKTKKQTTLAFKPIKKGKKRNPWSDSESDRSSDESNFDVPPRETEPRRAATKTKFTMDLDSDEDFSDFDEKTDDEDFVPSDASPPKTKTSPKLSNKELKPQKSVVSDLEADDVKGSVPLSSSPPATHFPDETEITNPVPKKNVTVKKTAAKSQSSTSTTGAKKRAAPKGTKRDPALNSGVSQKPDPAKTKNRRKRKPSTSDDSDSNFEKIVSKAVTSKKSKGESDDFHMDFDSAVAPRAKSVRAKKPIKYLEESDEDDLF

Take `CCCc1nnc2c3ccccc3c(NN=Cc3ccc([N+](=O)[O-])cc3)nn12` [Compound 9d, 6-[2–(4-Nitrobenzylidene)hydrazineyl]-3-propyl-[1,2, 4]triazolo[3,4-a]phthalazine]: inhibition against human Topo II was half-maximal at 7.02 ± 0.54 µM (IC50). In the series with Calf thymus DNA, the IC50 worked out at 26.2 ± 1.14 µM. In series [1] (Homo sapiens, HCT-116, MTT, mean ± SD of three separate experiments, read-out: In vitro Cytotoxicity IC50 HCT-116), the IC50 was 4.74 ± 0.15 µM. The “times more active than doxorubicin, HCT-116” value in series [1] (ratio of IC50 values vs doxorubicin) stood at 2.03 times. In series [2], this molecule registered an ALT of 42.9 U/L, an AST of 55.6 U/L, an Albumin of 6.25 g/dL and a Hb of 8.2 g/dL. In series [2], the RBCs count is 5.37 ×10^6/µL and 5.37 ± 0.37 ×10^6/µL; the “Total Protein” value was found to be 8.04 g/dL; the WBCs count was found to be 3720 µL⁻¹.

Source of the values: PMC8667898, “Topo II inhibition and DNA intercalation by new phthalazine-based derivatives as potent anticancer agents: design, synthesis, anti-proliferative, docking, and in vivo studies” (Journal of Enzyme Inhibition and Medicinal Chemistry, 2021).
